The target in this assay is GSK-3β (Homo sapiens, UniProt P49841). Description: Assay for GSK-3β inhibiting activity (32P-ATP, phospho-CREB peptide substrate, filter paper, CPM). The assay is classed as biochemical. The method, then:
Assay for GSK-3β inhibiting activity
First, PCR (polymerase chain reaction) was carried out using human DNA as a template as well as primers which were designed to correspond to the 3′- and 5′ ends of the polynucleotide coding human GSK-3β gene (Genbank Accession No.: L33801). The BamH1/XhoI fragment of the amplified PCR product thus obtained was inserted into the pGex vector between the BamH1 and XhoI sites, and the vector obtained was transformed into E. coli BL21(DE3). The transformed cells thus obtained was incubated in […] (1% Bacto-trypton, 0.5% yeast extract, 1% NaCl) containing ampicillin ([…]) until the optical density at 600 nm reached about 0.5. The cultured mixture was cooled to 18° C. and isopropyl β-D-thiogalacto-pyranoside (IPTG) was added thereto to a final concentration of 0.5 mM. After 16 hours, the resultant was centrifuged at 10,000×g for 10 min, the collected cells were suspended in a buffer solution (30 mM Tris-HCl (pH 7.5), 100 mM NaCl, 5% glycerol, 2 mM DTT) and the cells were disrupted using Sonic Dismembrator (Fisher, U.S.A.) in a ice bath. The resulting solution was centrifuged at 16,000 rpm for 30 minutes. […] The purified GSK-3β protein was diluted in a buffer solution (20 mM HEPES (pH 7.5), 5% glycerol, 2 mM DTT) to a final concentration of 50 mM NaCl and the resulting solution was subjected to mono S column chromatography (eluent: linear gradient from 0M to 1M NaCl buffer) using mono S column (Pharmacia Biotech, U.S.A.) equilibrated in the same buffer solution to obtain GSK-3β protein.
The reaction was stopped by adding 5 μl of 5% phosphoric acid to 25 μl of the resulting solution. The resulting mixture was centrifuged at 15,000 rpm for 10 min, 20 μl of the supernatant was added dropwise to Whatman p81 filter paper, and then, the resulting filter paper was washed with 0.5% phosphate buffer for 10 min. The filter paper was further washed 3 times and the enzymatic activity was determined by examining the extent of phospho-CREB peptide phosphorylation which is represented by the unit of count per minute (CPM), measured with a β-counter (Packard, USA).
The GSK-3β inhibiting activity was then calculated in accordance with the following equation:
[formula] wherein the blank represents a value obtained without the use of the enzyme and the compound of the present invention, and the control, in the absence of the compound of the present invention.

The mark [1] stands for this setting: GSK-3β inhibiting activity, 100 nM GSK-3β protein, 100 μM phospho-CREB peptide, 100 μM ATP, 30° C. for 1 hour, read-out: IC50.

Molecules are shown by their SMILES. Where two headings read alike, the source gives them in different places. Bounds are passed on as bounds.

Chain of GSK-3β (P49841 whole entry): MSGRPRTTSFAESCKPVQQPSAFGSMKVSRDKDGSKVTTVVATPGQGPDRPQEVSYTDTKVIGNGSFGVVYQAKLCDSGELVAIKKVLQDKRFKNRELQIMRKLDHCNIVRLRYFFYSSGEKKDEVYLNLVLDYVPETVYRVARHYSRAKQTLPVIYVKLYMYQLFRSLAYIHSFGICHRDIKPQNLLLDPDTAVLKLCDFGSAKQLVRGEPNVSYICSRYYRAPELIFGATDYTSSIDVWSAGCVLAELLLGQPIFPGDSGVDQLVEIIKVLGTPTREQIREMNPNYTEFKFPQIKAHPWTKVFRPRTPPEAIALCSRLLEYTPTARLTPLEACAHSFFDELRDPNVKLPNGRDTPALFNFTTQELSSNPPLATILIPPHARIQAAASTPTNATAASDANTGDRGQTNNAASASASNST

A word on the IC50: it is the concentration needed to halve the response being measured. `O=C(NCCN1CCOCC1)c1ccc(O)c2[nH]c(-c3ccc(F)cc3)nc12` [Compound 119]: the IC50 under setting [1] was greater than 5 µM.

`CCCCC(=O)Nc1ccc(CCNC(=O)c2ccc(O)c3[nH]c(-c4ccc(F)cc4)nc23)cc1` [Compound 120]: the half-inhibitory concentration (IC50) under setting [1] came out at 0.07 µM. `O=C(NCCc1ccc(O)cc1)c1ccc(O)c2[nH]c(-c3ccc(F)cc3)nc12` [Compound 121]: the IC50 under setting [1] is 0.03 µM.

For `CS(=O)(=O)Nc1ccc(NCCNC(=O)c2ccc(O)c3[nH]c(-c4ccc(F)cc4)nc23)nc1` [Compound 123], the IC50 under setting [1] was found to be 0.05 µM. Same read-out and setting: the result for `Cc1ccc(S(=O)(=O)Nc2ccc(NCCNC(=O)c3ccc(O)c4[nH]c(-c5ccc(F)cc5)nc34)nc2)cc1` [Compound 124] reads 0.07 µM; that for `O=C(NCCc1c[nH]cn1)c1ccc(O)c2[nH]c(-c3ccc(F)cc3)nc12` [Compound 125], greater than 1 µM. Same read-out and setting: the result for `CN1CCN(CC(=O)Nc2ccc(CCNC(=O)c3ccc(O)c4[nH]c(-c5ccc(F)cc5)nc34)cc2)CC1` [Compound 127] reads 0.18 µM; that for `CCN1CCN(CC(=O)Nc2ccc(CCNC(=O)c3ccc(O)c4[nH]c(-c5ccc(F)cc5)nc34)cc2)CC1` [Compound 128], 0.15 µM. `CN(C)CC(=O)Nc1ccc(CCNC(=O)c2ccc(O)c3[nH]c(-c4ccc(F)cc4)nc23)cc1` [Compound 129]: the IC50 under setting [1] came out at 0.12 µM. With `CCN(CC)CC(=O)Nc1ccc(CCNC(=O)c2ccc(O)c3[nH]c(-c4ccc(F)cc4)nc23)cc1` [Compound 130], the half-maximal inhibitory concentration (IC50) under setting [1] was determined as 0.33 µM. Turning to `Nc1ccc(CCNC(=O)c2ccc(O)c3[nH]c(-c4ccc(F)cc4)nc23)cc1` [Compound 131], the IC50 under setting [1] amounted to 0.17 µM. Regarding `O=C(NCCc1ccc(N2CCOCC2)cc1)c1ccc(O)c2[nH]c(-c3ccc(F)cc3)nc12` [Compound 132], the IC50 under setting [1] came out at 0.19 µM.

On to `O=C(CN1CCOCC1)Nc1ccc(CCNC(=O)c2ccc(O)c3nc(-c4ccc(F)cc4)[nH]c23)cc1` [Compound 134], for which the concentration for half-maximal inhibition (IC50) (IC50 (μM)) was determined as 0.04 µM.

On to `CN(C)c1ccc(CCNC(=O)c2ccc(O)c3[nH]c(-c4ccc(F)cc4)nc23)cc1` [Compound 135], for which the half-maximal inhibitory concentration (IC50) under setting [1] is greater than 1 µM. On the same count and under the same terms, next, `O=C(NCCc1ccc(OCCN2CCOCC2)cc1)c1ccc(O)c2[nH]c(-c3ccc(F)cc3)nc12` [Compound 136]: 0.24 µM; `O=C(NCCc1ccccc1O)c1ccc(O)c2[nH]c(-c3ccc(F)cc3)nc12` [Compound 137]: 0.005 µM; `COc1ccccc1CCNC(=O)c1ccc(O)c2[nH]c(-c3ccc(F)cc3)nc12` [Compound 138]: greater than 1 µM. As for `O=C(NCCc1cccc(Br)c1)c1ccc(O)c2[nH]c(-c3ccc(F)cc3)nc12` [Compound 139], under setting [1], the IC50 is 0.12 µM. On to `CS(=O)(=O)Nc1ccc(CCNC(=O)c2ccc(O)c3nc(-c4ccc(F)cc4F)[nH]c23)cc1` [Compound 140], for which, under setting [1], the half-maximal inhibitory concentration (IC50) was greater than 1 µM.

Take `Cc1ccc(S(=O)(=O)Nc2ccc(CCNC(=O)c3ccc(O)c4[nH]c(-c5ccc(F)cc5F)nc34)cc2)cc1` [Compound 141]: under setting [1], the half-inhibitory concentration (IC50) came to 0.043 µM. In the case of `CCS(=O)(=O)Nc1ccc(CCNC(=O)c2ccc(O)c3[nH]c(-c4ccc(F)cc4F)nc23)cc1` [Compound 142], under setting [1], the IC50 was 0.001 µM. With `CS(=O)(=O)Nc1ccc(CCNC(=O)c2ccc(O)c3[nH]c(-c4ccc(F)cc4Cl)nc23)cc1` [Compound 143], the half-maximal inhibitory concentration (IC50) under setting [1] amounted to 0.002 µM. As to `Cc1ccc(S(=O)(=O)Nc2ccc(CCNC(=O)c3ccc(O)c4[nH]c(-c5ccc(F)cc5Cl)nc34)cc2)cc1` [Compound 144], the half-maximal inhibitory concentration (IC50) under setting [1] was 0.006 µM. As to `CCS(=O)(=O)Nc1ccc(CCNC(=O)c2ccc(O)c3nc(-c4ccc(F)cc4Cl)[nH]c23)cc1` [Compound 145], the half-inhibitory concentration (IC50) (IC50 (μM)) was 0.002 µM. On to `CC(=O)Nc1ccc(CCNC(=O)c2ccc(O)c3[nH]c(-c4ccc(F)cc4Cl)nc23)cc1` [Compound 146], for which the half-maximal inhibitory concentration (IC50) under setting [1] was 0.07 µM. As to `O=C(NCCN1CCOCC1)c1ccc(O)c2[nH]c(-c3ccc(F)cc3Cl)nc12` [Compound 147], under setting [1], the half-maximal inhibitory concentration (IC50) was 0.21 µM. Same read-out and setting: the result for `CN1CCN(CCNC(=O)c2ccc(O)c3[nH]c(-c4ccc(F)cc4Cl)nc23)CC1` [Compound 148] reads greater than 1 µM; that for `CCCCC(=O)Nc1ccc(CCNC(=O)c2ccc(O)c3[nH]c(-c4ccc(F)cc4Cl)nc23)cc1` [Compound 149], 0.14 µM; that for `O=C(NCCc1ccc(O)cc1)c1ccc(O)c2[nH]c(-c3ccc(F)cc3Cl)nc12` [Compound 150], 0.06 µM.

As for `CS(=O)(=O)Nc1ccc(NCCNC(=O)c2ccc(O)c3[nH]c(-c4ccc(F)cc4Cl)nc23)nc1` [Compound 152], the half-inhibitory concentration (IC50) under setting [1] is 0.24 µM. Still for that read-out and setting: the result for `Cc1ccc(S(=O)(=O)Nc2ccc(NCCNC(=O)c3ccc(O)c4[nH]c(-c5ccc(F)cc5Cl)nc34)nc2)cc1` [Compound 153] reads 0.05 µM; that for `O=C(NCCc1c[nH]cn1)c1ccc(O)c2[nH]c(-c3ccc(F)cc3Cl)nc12` [Compound 154], greater than 1 µM; that for `CN1CCN(CC(=O)Nc2ccc(CCNC(=O)c3ccc(O)c4[nH]c(-c5ccc(F)cc5Cl)nc34)cc2)CC1` [Compound 156], 0.28 µM.

`CCN1CCN(CC(=O)Nc2ccc(CCNC(=O)c3ccc(O)c4[nH]c(-c5ccc(F)cc5Cl)nc34)cc2)CC1` [Compound 157]: the IC50 under setting [1] is 0.49 µM. The same measure, in the same setting: the result for `CN(C)CC(=O)Nc1ccc(CCNC(=O)c2ccc(O)c3[nH]c(-c4ccc(F)cc4Cl)nc23)cc1` [Compound 158] reads 0.23 µM; that for `CCN(CC)CC(=O)Nc1ccc(CCNC(=O)c2ccc(O)c3[nH]c(-c4ccc(F)cc4Cl)nc23)cc1` [Compound 159], 0.68 µM; that for `Cc1ccc(S(=O)(=O)Nc2ccc(CCNC(=O)c3ccc(O)c4[nH]c(-c5ccc(F)c(Cl)c5)nc34)cc2)cc1` [Compound 160], greater than 1 µM. Still for that read-out and setting: the result for `CS(=O)(=O)Nc1ccc(CCNC(=O)c2ccc(O)c3[nH]c(-c4ccc(F)c(Cl)c4)nc23)cc1` [Compound 161] reads 0.09 µM; that for `CCCCNC(=O)c1ccc(O)c2[nH]c(-c3ccccc3)nc12` [Compound 162], 0.24 µM.

On to `NCCCNC(=O)c1ccc(O)c2[nH]c(-c3ccccc3)nc12` [Compound 163], for which the IC50 under setting [1] is greater than 1 µM. For `O=C(NCCCN1CCCC1=O)c1ccc(O)c2[nH]c(-c3ccccc3)nc12` [Compound 164], the IC50 under setting [1] was 0.84 µM. With `O=C(NCCCn1ccnc1)c1ccc(O)c2[nH]c(-c3ccccc3)nc12` [Compound 165], the IC50 under setting [1] was 0.08 µM. Take `O=C(NCCCN1CCOCC1)c1ccc(O)c2[nH]c(-c3ccccc3)nc12` [Compound 166]: under setting [1], the concentration for half-maximal inhibition (IC50) is greater than 1 µM. Regarding `Cc1nccn1CCCNC(=O)c1ccc(O)c2[nH]c(-c3ccccc3)nc12` [Compound 167], under setting [1], the half-maximal inhibitory concentration (IC50) was 0.1 µM.

For the compound `CCCCNC(=O)c1ccc(O)c2[nH]c(-c3ccc(Cl)cc3)nc12` [Compound 168], under setting [1], the concentration for half-maximal inhibition (IC50) is greater than 1 µM. Take `O=C(NCCCN1CCCC1=O)c1ccc(O)c2[nH]c(-c3ccc(Cl)cc3)nc12` [Compound 169]: the IC50 under setting [1] was greater than 1 µM.

In the case of `O=C(NCCCn1ccnc1)c1ccc(O)c2[nH]c(-c3ccc(Cl)cc3)nc12` [Compound 170], the half-inhibitory concentration (IC50) under setting [1] stood at 0.19 µM. Take `O=C(NCCCN1CCOCC1)c1ccc(O)c2[nH]c(-c3ccc(Cl)cc3)nc12` [Compound 171]: the half-inhibitory concentration (IC50) under setting [1] was greater than 1 µM. On to `O=C(NCCCn1ccnc1-c1ccccc1)c1ccc(O)c2[nH]c(-c3ccc(Cl)cc3)nc12` [Compound 172], for which the IC50 under setting [1] is 0.8 µM. For the compound `Cc1cn(CCCNC(=O)c2ccc(O)c3[nH]c(-c4ccc(Cl)cc4)nc23)cn1` [Compound 173], under setting [1], the IC50 came to 0.1 µM. For the compound `O=C(NCCCn1cnc(Cl)c1Cl)c1ccc(O)c2[nH]c(-c3ccc(Cl)cc3)nc12` [Compound 174], the concentration for half-maximal inhibition (IC50) under setting [1] was 0.04 µM. With `CCCCNC(=O)c1ccc(O)c2[nH]c(-c3ccc(Cl)cc3Cl)nc12` [Compound 176], under setting [1], the IC50 turned out to be 0.45 µM. On to `O=C(NCCCN1CCCC1=O)c1ccc(O)c2[nH]c(-c3ccc(Cl)cc3Cl)nc12` [Compound 177], for which the half-inhibitory concentration (IC50) under setting [1] was 0.2 µM. In the case of `O=C(NCCCn1ccnc1)c1ccc(O)c2[nH]c(-c3ccc(Cl)cc3Cl)nc12` [Compound 178], the half-maximal inhibitory concentration (IC50) under setting [1] was determined as 0.04 µM. On to `O=C(NCCCN1CCOCC1)c1ccc(O)c2[nH]c(-c3ccc(Cl)cc3Cl)nc12` [Compound 179], for which the IC50 under setting [1] was greater than 1 µM. In the case of `O=C(NCCCn1ccnc1-c1ccccc1)c1ccc(O)c2[nH]c(-c3ccc(Cl)cc3Cl)nc12` [Compound 180], under setting [1], the IC50 was found to be 0.21 µM. With `Cc1cn(CCCNC(=O)c2ccc(O)c3[nH]c(-c4ccc(Cl)cc4Cl)nc23)cn1` [Compound 181], the IC50 under setting [1] was 0.03 µM.

These data come from patent US7179832B2, “Glycogen synthase kinase 3β inhibitor, composition and process for the preparation thereof” (Crystalgenomics, Inc., priority 2003, dated 2007).
